Molecular target: T1, LCK (Homo sapiens, UniProt P06239)
T1 construct: purchased Thermo Fisher Scientific (Life Technologies) SelectScreen
Test: SelectScreen Z'LYTE
Format: biochemical
Procedure, shortened: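 Percent values come from Thermo SelectScreen profiling of NU5455, combining activity and binding assays. CSF1R was run in Z'LYTE format at Km app ATP, and CAMK1 in Adapta format with ATP listed at 10.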

T1 sequence (P06239 whole entry): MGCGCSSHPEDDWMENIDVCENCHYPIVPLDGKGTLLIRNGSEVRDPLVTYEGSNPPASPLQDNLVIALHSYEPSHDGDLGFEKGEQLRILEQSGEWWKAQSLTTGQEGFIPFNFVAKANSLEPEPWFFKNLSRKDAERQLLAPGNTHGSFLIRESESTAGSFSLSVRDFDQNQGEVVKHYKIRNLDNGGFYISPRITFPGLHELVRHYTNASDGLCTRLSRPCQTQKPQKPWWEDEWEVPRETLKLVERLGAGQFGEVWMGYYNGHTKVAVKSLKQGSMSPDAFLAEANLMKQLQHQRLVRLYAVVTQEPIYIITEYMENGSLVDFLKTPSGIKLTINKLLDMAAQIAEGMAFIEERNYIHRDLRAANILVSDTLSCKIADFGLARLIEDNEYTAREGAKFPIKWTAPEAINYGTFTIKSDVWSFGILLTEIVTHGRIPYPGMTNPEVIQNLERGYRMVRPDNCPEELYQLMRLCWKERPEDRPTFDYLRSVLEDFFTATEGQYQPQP

In the case of `CN(C(=O)CN1CCOCC1)c1ccc2sc3c(-c4cccc5c(=O)cc(N6CC7CCC(C6)O7)oc45)cccc3c2c1` [NU5455], the inhibition at 1 µM is reported as 9.6%.

Reference: article PMC6934184, “Selective DNA-PKcs inhibition extends the therapeutic index of localized radiotherapy and chemotherapy” (The Journal of Clinical Investigation, 2019)
